# System: Human PBMCs (DCs, B-cells, T-cells)
# Test: Transduction specificity in GM-CSF/IL-4 treated human PBMC culture
# Conditions: all cell populations
smiles,measurement,value
Cc1ccnc2c1NC(=O)c1cccnc1N2C1CC1 [Nevirapine],effect of RT inhibitor on transduction,completely ablated
